Measurements published in ChEMBL document CHEMBL3132769, “Fragment growing to retain or alter the selectivity of anchored kinase hinge-binding fragments” (Medchemcomm, 2014).

Tests used:
[1] = biological target: MAP/microtubule affinity-regulating kinase 3 (Homo sapiens) (UniProt P27448); assay: Inhibition of human full length c-TAK1 expressed in Escherichia coli cell assessed as substrate phosphorylation using fluorescence-labelled peptides as substrate at 0.2 uM after 90 mins by microfluidic peptide phosphorylation assay
[2] = biological target: Tyrosine-protein kinase Lck (Homo sapiens) (UniProt P06239); assay: Inhibition of human full length LCK expressed in baculovirus assessed as substrate phosphorylation using fluorescence-labelled peptides as substrate at 8 uM after 90 mins by microfluidic peptide phosphorylation assay
[3] = biological target: T1, Mitogen-activated protein kinase 13 (Homo sapiens) (UniProt O15264); assay: Inhibition of human full length p38 delta expressed in Escherichia coli cell assessed as substrate phosphorylation using fluorescence-labelled peptides as substrate at 8 uM after 90 mins by microfluidic peptide phosphorylation assay
T1 sequence (whole entry): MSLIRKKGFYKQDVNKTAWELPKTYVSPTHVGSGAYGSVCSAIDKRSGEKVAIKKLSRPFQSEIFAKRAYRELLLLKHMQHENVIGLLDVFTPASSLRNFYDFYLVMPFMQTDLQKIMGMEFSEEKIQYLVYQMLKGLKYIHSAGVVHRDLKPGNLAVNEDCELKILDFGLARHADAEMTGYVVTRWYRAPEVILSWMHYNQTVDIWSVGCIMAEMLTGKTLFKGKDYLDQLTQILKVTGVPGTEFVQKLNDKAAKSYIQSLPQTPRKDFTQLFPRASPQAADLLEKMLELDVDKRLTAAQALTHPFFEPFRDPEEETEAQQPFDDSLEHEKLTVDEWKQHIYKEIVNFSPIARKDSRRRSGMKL

[4] = organism: Homo sapiens; assay: Inhibition of human P70S6K catalytic domain expressed in baculovirus assessed as substrate phosphorylation using fluorescence-labelled peptides as substrate at 2 uM after 90 mins by microfluidic peptide phosphorylation assay
[5] = biological target: Casein kinase I isoform alpha (Homo sapiens) (UniProt P48729); assay: Inhibition of human full length CSNK1A1 expressed in baculovirus assessed as substrate phosphorylation using fluorescence-labelled peptides as substrate at 0.06 uM after 90 mins by microfluidic peptide phosphorylation assay
[6] = biological target: Receptor-type tyrosine-protein kinase FLT3 (Homo sapiens) (UniProt P36888); assay: Inhibition of human FLT3 catalytic domain expressed in baculovirus assessed as substrate phosphorylation using fluorescence-labelled peptides as substrate at 0.06 uM after 90 mins by microfluidic peptide phosphorylation assay
[7] = biological target: T2, Serine/threonine-protein kinase D1 (Homo sapiens) (UniProt Q15139); assay: Inhibition of human full length PKD1 expressed in baculovirus assessed as substrate phosphorylation using fluorescence-labelled peptides as substrate at 0.06 uM after 90 mins by microfluidic peptide phosphorylation assay
T2 sequence (whole entry): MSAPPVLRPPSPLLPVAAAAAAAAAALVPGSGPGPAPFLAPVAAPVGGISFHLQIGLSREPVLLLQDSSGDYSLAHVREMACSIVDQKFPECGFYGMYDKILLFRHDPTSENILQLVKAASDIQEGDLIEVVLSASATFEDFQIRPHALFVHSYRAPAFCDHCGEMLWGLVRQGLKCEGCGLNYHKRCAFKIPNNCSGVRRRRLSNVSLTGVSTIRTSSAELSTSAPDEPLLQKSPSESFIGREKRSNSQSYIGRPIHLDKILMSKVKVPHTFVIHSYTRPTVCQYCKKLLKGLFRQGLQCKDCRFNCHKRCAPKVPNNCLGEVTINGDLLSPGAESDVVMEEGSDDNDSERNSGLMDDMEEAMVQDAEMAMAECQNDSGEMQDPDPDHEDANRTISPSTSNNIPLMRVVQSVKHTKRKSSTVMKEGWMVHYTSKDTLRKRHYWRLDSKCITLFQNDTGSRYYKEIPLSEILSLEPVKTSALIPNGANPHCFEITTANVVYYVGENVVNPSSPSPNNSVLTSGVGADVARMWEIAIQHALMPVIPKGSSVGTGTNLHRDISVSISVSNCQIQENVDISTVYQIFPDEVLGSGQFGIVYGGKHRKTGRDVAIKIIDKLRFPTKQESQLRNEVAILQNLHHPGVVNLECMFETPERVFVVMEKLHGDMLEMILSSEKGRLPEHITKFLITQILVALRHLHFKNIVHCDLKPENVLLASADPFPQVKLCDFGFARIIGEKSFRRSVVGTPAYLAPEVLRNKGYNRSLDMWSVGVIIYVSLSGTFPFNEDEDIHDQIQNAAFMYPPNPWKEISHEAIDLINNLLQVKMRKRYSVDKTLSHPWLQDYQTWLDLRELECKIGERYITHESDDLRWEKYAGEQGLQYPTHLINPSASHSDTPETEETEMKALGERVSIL

[8] = biological target: Serine/threonine-protein kinase PAK 2 (Homo sapiens) (UniProt Q13177); assay: Inhibition of human truncated PAK2 expressed in Escherichia coli cell assessed as substrate phosphorylation using fluorescence-labelled peptides as substrate at 0.06 uM after 90 mins by microfluidic peptide phosphorylation assay
[9] = biological target: T3, Protein kinase C zeta type (Homo sapiens) (UniProt Q05513); assay: Inhibition of human full length PKC zeta expressed in baculovirus assessed as substrate phosphorylation using fluorescence-labelled peptides as substrate at 0.1 uM after 90 mins by microfluidic peptide phosphorylation assay
T3 sequence (whole entry): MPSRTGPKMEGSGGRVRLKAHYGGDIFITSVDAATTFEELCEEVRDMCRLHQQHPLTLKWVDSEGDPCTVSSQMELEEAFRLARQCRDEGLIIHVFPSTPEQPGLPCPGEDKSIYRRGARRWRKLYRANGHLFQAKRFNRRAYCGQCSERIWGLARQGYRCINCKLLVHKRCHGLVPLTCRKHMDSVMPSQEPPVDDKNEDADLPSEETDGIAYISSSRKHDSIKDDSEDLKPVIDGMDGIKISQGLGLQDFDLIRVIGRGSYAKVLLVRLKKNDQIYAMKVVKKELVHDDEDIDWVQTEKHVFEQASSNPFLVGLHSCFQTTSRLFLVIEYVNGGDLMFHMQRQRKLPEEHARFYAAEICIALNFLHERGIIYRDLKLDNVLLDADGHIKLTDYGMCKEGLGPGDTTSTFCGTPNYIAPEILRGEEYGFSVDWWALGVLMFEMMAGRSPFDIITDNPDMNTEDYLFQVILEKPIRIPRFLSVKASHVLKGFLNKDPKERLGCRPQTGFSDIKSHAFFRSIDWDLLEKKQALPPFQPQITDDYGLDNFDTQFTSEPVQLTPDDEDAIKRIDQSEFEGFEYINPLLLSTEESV

[10] = biological target: Tyrosine-protein kinase BTK (Homo sapiens) (UniProt Q06187); assay: Inhibition of human full length BTK expressed in baculovirus assessed as substrate phosphorylation using fluorescence-labelled peptides as substrate at 420 uM after 90 mins by microfluidic peptide phosphorylation assay
[11] = biological target: Ribosomal protein S6 kinase alpha-1 (Homo sapiens) (UniProt Q15418); assay: Inhibition of human full length RSK1 expressed in baculovirus assessed as substrate phosphorylation using fluorescence-labelled peptides as substrate at 420 uM after 90 mins by microfluidic peptide phosphorylation assay
Sequence of Ribosomal protein S6 kinase alpha-1 (Homo sapiens) (Q15418 whole entry): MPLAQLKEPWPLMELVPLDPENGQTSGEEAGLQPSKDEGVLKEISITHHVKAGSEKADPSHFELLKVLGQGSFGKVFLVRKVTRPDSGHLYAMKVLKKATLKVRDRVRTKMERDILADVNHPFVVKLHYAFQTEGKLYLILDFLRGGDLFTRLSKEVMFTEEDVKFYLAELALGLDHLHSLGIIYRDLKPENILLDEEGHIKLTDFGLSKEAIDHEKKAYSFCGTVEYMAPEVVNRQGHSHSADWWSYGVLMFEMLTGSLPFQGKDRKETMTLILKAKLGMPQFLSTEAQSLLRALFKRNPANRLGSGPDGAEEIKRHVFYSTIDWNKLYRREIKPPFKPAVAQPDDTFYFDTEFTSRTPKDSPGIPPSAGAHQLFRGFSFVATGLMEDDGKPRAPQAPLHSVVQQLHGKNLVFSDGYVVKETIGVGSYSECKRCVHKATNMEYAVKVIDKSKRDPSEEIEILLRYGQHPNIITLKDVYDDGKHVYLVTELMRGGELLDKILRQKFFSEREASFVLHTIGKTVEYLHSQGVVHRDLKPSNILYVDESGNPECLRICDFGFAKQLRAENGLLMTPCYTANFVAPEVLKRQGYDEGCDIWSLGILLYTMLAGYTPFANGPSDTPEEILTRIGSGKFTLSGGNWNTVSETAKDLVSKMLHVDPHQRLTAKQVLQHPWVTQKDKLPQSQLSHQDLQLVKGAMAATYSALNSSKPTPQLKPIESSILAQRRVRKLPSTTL

Sequence of Tyrosine-protein kinase BTK (Homo sapiens) (Q06187 whole entry): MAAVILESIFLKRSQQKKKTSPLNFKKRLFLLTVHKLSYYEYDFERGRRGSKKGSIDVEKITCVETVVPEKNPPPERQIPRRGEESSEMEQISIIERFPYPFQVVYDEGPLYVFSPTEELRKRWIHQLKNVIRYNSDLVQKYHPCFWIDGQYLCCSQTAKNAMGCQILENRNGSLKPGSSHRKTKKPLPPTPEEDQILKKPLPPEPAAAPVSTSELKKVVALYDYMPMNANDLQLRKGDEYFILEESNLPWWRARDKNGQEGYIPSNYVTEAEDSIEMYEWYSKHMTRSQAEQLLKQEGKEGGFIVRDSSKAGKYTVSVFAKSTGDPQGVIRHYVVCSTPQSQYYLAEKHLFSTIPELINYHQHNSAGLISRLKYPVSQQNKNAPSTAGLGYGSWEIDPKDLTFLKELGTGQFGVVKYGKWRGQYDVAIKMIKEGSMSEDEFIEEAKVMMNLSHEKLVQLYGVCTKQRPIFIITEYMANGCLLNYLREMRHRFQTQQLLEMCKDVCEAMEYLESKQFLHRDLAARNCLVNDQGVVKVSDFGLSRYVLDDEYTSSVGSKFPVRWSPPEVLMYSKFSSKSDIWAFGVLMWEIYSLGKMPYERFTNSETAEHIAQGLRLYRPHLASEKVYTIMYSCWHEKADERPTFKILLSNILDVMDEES
Sequence of Serine/threonine-protein kinase PAK 2 (Homo sapiens) (Q13177 whole entry, the tested form may be a part): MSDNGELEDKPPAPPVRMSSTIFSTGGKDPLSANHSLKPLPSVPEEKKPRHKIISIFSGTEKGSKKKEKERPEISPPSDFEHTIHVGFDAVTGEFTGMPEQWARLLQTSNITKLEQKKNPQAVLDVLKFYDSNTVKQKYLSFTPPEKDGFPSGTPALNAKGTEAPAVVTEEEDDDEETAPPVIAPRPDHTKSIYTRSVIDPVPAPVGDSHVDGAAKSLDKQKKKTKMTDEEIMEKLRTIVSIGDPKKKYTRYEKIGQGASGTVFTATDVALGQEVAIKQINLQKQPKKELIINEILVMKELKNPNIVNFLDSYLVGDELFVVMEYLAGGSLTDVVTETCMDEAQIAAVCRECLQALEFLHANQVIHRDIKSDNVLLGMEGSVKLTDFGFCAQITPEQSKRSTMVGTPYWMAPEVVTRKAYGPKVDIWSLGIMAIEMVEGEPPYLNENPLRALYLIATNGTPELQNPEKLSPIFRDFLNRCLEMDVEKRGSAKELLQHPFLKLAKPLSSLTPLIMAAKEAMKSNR
Sequence of Tyrosine-protein kinase Lck (Homo sapiens) (P06239 2-509 limits assumed): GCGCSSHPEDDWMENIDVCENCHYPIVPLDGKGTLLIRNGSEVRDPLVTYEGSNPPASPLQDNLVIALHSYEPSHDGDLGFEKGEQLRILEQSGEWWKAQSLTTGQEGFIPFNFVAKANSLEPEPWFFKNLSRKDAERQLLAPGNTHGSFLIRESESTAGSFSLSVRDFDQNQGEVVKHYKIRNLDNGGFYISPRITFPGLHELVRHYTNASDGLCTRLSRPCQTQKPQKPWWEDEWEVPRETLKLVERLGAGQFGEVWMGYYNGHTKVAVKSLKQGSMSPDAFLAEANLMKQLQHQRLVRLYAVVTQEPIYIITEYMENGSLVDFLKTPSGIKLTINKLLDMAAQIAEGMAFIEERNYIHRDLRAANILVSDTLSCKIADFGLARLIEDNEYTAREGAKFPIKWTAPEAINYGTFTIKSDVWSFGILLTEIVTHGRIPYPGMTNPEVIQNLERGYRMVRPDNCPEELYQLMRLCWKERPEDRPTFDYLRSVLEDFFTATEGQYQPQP
Sequence of Receptor-type tyrosine-protein kinase FLT3 (Homo sapiens) (P36888 whole entry, the tested form may be a part): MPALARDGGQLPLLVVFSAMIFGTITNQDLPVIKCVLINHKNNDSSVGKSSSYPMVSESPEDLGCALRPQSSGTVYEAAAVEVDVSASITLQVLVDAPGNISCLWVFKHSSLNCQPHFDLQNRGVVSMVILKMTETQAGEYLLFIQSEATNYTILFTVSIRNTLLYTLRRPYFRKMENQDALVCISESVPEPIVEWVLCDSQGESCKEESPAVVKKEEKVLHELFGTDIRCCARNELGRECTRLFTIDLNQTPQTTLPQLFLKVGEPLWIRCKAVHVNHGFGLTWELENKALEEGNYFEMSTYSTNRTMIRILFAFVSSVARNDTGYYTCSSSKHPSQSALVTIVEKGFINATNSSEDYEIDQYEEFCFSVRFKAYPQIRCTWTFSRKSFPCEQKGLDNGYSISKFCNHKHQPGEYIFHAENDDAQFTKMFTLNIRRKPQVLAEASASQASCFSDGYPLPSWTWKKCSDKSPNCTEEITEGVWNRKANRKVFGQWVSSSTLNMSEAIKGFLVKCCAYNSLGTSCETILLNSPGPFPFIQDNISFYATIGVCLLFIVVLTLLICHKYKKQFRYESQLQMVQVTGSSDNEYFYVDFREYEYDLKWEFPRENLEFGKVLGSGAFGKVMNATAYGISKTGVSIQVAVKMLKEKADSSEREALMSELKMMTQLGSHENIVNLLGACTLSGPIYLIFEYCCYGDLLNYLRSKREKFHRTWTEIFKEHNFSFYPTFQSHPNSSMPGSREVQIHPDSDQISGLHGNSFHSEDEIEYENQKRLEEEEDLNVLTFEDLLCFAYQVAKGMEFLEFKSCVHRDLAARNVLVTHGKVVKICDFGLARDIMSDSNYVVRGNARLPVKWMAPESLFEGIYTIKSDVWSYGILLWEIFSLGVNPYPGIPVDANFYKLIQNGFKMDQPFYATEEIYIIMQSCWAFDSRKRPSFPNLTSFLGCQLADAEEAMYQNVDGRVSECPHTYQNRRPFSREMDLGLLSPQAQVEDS
Sequence of MAP/microtubule affinity-regulating kinase 3 (Homo sapiens) (P27448 whole entry, looked up): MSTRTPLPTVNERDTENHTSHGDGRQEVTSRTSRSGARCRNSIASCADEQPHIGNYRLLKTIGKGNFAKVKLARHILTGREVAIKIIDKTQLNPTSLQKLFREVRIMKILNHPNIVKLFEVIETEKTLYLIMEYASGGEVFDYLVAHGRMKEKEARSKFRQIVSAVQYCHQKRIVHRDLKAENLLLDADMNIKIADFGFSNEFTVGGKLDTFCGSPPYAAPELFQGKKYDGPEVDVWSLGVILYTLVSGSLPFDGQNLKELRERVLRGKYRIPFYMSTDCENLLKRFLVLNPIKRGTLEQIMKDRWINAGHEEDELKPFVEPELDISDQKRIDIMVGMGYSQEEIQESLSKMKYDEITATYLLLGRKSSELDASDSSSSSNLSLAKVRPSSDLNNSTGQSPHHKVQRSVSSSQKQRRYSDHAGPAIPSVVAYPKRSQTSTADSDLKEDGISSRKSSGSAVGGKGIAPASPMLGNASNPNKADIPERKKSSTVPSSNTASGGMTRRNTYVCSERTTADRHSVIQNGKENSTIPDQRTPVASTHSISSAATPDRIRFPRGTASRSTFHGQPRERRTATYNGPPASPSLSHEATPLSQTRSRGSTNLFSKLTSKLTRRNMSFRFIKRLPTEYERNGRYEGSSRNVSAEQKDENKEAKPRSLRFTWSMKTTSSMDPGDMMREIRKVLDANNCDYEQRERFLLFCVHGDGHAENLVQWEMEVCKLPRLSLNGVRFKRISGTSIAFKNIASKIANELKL
Sequence of Casein kinase I isoform alpha (Homo sapiens) (P48729 2-337 limits assumed): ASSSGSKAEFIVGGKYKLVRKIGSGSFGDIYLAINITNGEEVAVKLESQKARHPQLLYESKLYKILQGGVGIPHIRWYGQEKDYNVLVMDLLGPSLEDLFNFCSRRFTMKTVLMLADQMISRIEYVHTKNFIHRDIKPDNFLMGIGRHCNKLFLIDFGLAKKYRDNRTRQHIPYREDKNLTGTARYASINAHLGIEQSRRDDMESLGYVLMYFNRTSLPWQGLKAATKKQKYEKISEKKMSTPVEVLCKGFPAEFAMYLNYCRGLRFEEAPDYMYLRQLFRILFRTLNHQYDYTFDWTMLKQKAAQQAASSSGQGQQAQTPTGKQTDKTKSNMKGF

Clc1ccc(C2(c3ccc(-c4ncnc5[nH]cnc45)cc3)CCNCC2)cc1
inhibition [1]: 27.5%

NCC1CCN(c2ncnc3[nH]ccc23)CC1
inhibition [2]: 48.5% | inhibition [3]: 5.5%

NC1CCN(c2ncnc3[nH]ccc23)CC1
inhibition [4]: 3.5%

NC1(Cc2ccc(Cl)cc2)CCN(c2ncnc3[nH]ccc23)CC1
inhibition [5]: 1% | inhibition [6]: 0% | inhibition [7]: 32.5% | inhibition [8]: 1.5%

C[C@H](CN(C)C)Oc1nc(Nc2cc3cccc(Cl)c3cn2)cnc1C#N
inhibition [9]: 19%

c1nc(N2CCOCC2)c2nc[nH]c2n1
inhibition [10]: 55% | inhibition [11]: 87%
